Results: patent US6620961B1, “Biarylalkylenecarbamic acid derivatives and bacteriocides for agricultural and horticultural use” (Kumiai Chemical Industry Co., Ltd., priority 1997, dated 2003)
Each block holds one compound with its values, some of them ahead of it.

Experiments:
[1] = test system: Pseudoperonospora cubensis; experiment: Test for Preventive Effect on Cucumber Downy Mildew; type: in vivo; design: key: A: No diseased area; B: Diseased area of less than 25%; C: Diseased area of at least 25% but less than 50%; Diseased area of at least 50%; settings: cucumber seedlings, wettable powder at 500 ppm active ingredient, 7 days after inoculation
Protocol: Test for Preventive Effect on Cucumber Downy Mildew 9 cucumber seeds (variety: Sagami-hanpaku) were sown in each 9 cmx9 cm polyvinyl chloride pot and grown in a greenhouse for 7 days. […] Then, the seedlings were inoculated with Pseudoperonospora cubensis zoosporangia in suspension by spraying and immediately placed in a moist chamber at 22° C. for 24 hours. Thereafter, the seedlings were placed in a greenhouse. 7 days after the inoculation, the total diseased area in each pot was observed and evaluated on the basis of the standards shown in Table 59. [table]

Erysiphe graminis = experiment: Test for Preventive Effect on Wheat Powdery Mildew; type: in vivo; design: key: A: No diseased area; B: Diseased area of less than 25%; C: Diseased area of at least 25% but less than 50%; Diseased area of at least 50%; settings: wheat seedlings (Norin-61-go), 500 ppm active ingredient, 10 ml per pot, 10 days after inoculation
Protocol: [table] Test for Preventive Effect on Wheat Powdery Mildew 9 wheat seeds (variety: […] Then, the seedlings were inoculated with […] graminis spores in suspension and placed in a greenhouse at 25 to 30° C. 10 days after the inoculation, the total diseases area of the first leaves in each pot was observed and evaluated on the basis of the standards shown in Table 59. The results are shown in Tables 67 to 71.

Botrytis cinerea = experiment: Test for Preventive Effect on Cucumber Gray Mold; type: in vivo; design: key: A: No diseased area; B: Diseased area of less than 25%; C: Diseased area of at least 25% but less than 50%; Diseased area of at least 50%; settings: cotyledonary cucumber seedlings (Sagami-hanziro), 500 ppm active ingredient, 10 ml per pot, 3 days after inoculation
Protocol: [table] Test for Preventive Effect on Cucumber Gray Mold 9 cucumber seeds (variety: Sagami-hanziro) were sown in each 9 cm−9 cm polyvinyl chloride pot and grown in a greenhouse for 7 days. […] Then, the seedlings were inoculated with milled Botrytis cinerea hyphae in solution by spraying and immediately placed in a moist chamber at 22° C. 3 days after the inoculation, the total diseased area in each pot was observed and evaluated on the basis of the standards shown in Table 59.

Venturia inaequalis = experiment: Test for Preventive Effect on Apple Scab; type: in vivo; design: key: A: No diseased area; B: Diseased area of less than 25%; C: Diseased area of at least 25% but less than 50%; Diseased area of at least 50%; settings: 14 days after inoculation; for Evaluation (diseased areas of the upper two of the inoculated leaves): apple seedlings, wettable powder at 500 ppm active ingredient, preventive; for Evaluation (diseased area of the upper two inoculated leaves): apple seedlings (Kogyoku), 500 ppm active ingredient, 20 ml per pot
Protocol: [table] Test for Preventive Effect on Apple Scab 5 apple seeds (variety: Kogyoku) were sown in each 9 cm×9 cm polyvinyl chloride pot and grown in a greenhouse for 20 days. […] Then, the seedlings were inoculated with Venturia inaequalis spores in suspension by spraying and immediately placed in a moist chamber at 22° C. for 48 hours. Thereafter, the seedlings were placed in a greenhouse for development of the disease. 14 days after the inoculation, the diseased areas of the upper two of the inoculated leaves were observed and evaluated on the basis of the standards shown in Table 59.

SMILES: COC(=O)NCc1cccc(-c2ccc(C)cc2)c1 [1-12]
- Evaluation (total diseased area in each pot) [1]: B (Diseased area of less than 25%)
- Evaluation (total diseased area of the first leaves in each pot) (Erysiphe graminis): A
- Evaluation (total diseased area in each pot) (Botrytis cinerea): A
- Evaluation (diseased areas of the upper two of the inoculated leaves) (Venturia inaequalis): A

SMILES: COC(=O)NCc1cc(-c2cccc(Cl)c2)ccc1OC [2-331]
- Evaluation (total diseased area in each pot) [1]: A
- Evaluation (total diseased area of the first leaves in each pot) (Erysiphe graminis): B (Diseased area of less than 25%)
- Evaluation (total diseased area in each pot) (Botrytis cinerea): A
- Evaluation (diseased area of the upper two inoculated leaves) (Venturia inaequalis): A

SMILES: COC(=O)NCc1cc(-c2ccc(C)c(C)c2)ccc1OC [2-346]
- Evaluation (total diseased area in each pot) [1]: B (Diseased area of less than 25%)
- Evaluation (total diseased area of the first leaves in each pot) (Erysiphe graminis): A
- Evaluation (total diseased area in each pot) (Botrytis cinerea): B (Diseased area of less than 25%)
- Evaluation (diseased area of the upper two inoculated leaves) (Venturia inaequalis): A

SMILES: COC(=O)NCc1cccc(-c2ccc(Cl)cc2)c1 [1-4]
- Evaluation (total diseased area of the first leaves in each pot) (Erysiphe graminis): B (Diseased area of less than 25%)
- Evaluation (total diseased area in each pot) (Botrytis cinerea): A
- Evaluation (diseased areas of the upper two of the inoculated leaves) (Venturia inaequalis): A

- melting point: 117 to 119 °C
SMILES: COC(=O)NC(C)c1cccc(-c2ccc(OC)cc2)c1 (centres unmarked) [3-15, Methyl N-{1-[3-(4-methoxyphenyl)phenyl]ethyl}carbamate]
- Evaluation (total diseased area in each pot) [1]: A

SMILES: COC(=O)NCc1cccc(-c2ccc(C(F)(F)F)cc2)c1 [1-35]
- Evaluation (total diseased area of the first leaves in each pot) (Erysiphe graminis): A
- Evaluation (total diseased area in each pot) (Botrytis cinerea): B (Diseased area of less than 25%)
- Evaluation (diseased areas of the upper two of the inoculated leaves) (Venturia inaequalis): A

SMILES: COC(=O)NCc1cc(-c2cccc(C(C)=O)c2)ccc1Cl [2-450]
- Evaluation (total diseased area in each pot) [1]: A
- Evaluation (total diseased area of the first leaves in each pot) (Erysiphe graminis): A
- Evaluation (total diseased area in each pot) (Botrytis cinerea): A
- Evaluation (diseased area of the upper two inoculated leaves) (Venturia inaequalis): A

SMILES: COC(=O)NCc1cc(-c2ccc(C)cc2)ccc1OC [2-334]
- Evaluation (total diseased area in each pot) [1]: B (Diseased area of less than 25%)
- Evaluation (total diseased area of the first leaves in each pot) (Erysiphe graminis): B (Diseased area of less than 25%)
- Evaluation (total diseased area in each pot) (Botrytis cinerea): A
- Evaluation (diseased area of the upper two inoculated leaves) (Venturia inaequalis): A

- melting point: 49 to 52 °C
SMILES: COC(=O)NCc1cccc(-c2ccccc2)c1 [1-1, Methyl N-(3-phenylbenzyl)carbamate]
- Evaluation (total diseased area of the first leaves in each pot) (Erysiphe graminis): A
- Evaluation (diseased areas of the upper two of the inoculated leaves) (Venturia inaequalis): A

- melting point: 61 to 64 °C
SMILES: CC(C)OC(=O)NCc1cccc(-c2ccccc2)c1 [1-150, Isopropyl N-(3-phenylbenzyl)carbamate]
- Evaluation (total diseased area of the first leaves in each pot) (Erysiphe graminis): B (Diseased area of less than 25%)

- melting point: 91 to 94 °C
SMILES: COC(=O)NCc1cccc(-c2ccccc2)c1C [2-1, Methyl N-(2-methyl-3-phenylbenzyl)carbamate]
- Evaluation (total diseased area of the first leaves in each pot) (Erysiphe graminis): A

SMILES: COC(=O)NCc1cccc(-c2cccc(C)c2)c1 [1-11]
- Evaluation (total diseased area in each pot) [1]: A
- Evaluation (total diseased area of the first leaves in each pot) (Erysiphe graminis): A
- Evaluation (total diseased area in each pot) (Botrytis cinerea): B (Diseased area of less than 25%)
- Evaluation (diseased areas of the upper two of the inoculated leaves) (Venturia inaequalis): A

SMILES: CCc1cccc(-c2ccc(F)c(CNC(=O)OC)c2)c1 [2-111]
- Evaluation (total diseased area in each pot) [1]: A
- Evaluation (total diseased area of the first leaves in each pot) (Erysiphe graminis): B (Diseased area of less than 25%)
- Evaluation (total diseased area in each pot) (Botrytis cinerea): B (Diseased area of less than 25%)
- Evaluation (diseased areas of the upper two of the inoculated leaves) (Venturia inaequalis): A

SMILES: COC(=O)NCc1cc(-c2cccc(C(F)(F)F)c2)ccc1OC [2-343]
- Evaluation (total diseased area in each pot) [1]: A
- Evaluation (total diseased area of the first leaves in each pot) (Erysiphe graminis): B (Diseased area of less than 25%)
- Evaluation (total diseased area in each pot) (Botrytis cinerea): B (Diseased area of less than 25%)
- Evaluation (diseased area of the upper two inoculated leaves) (Venturia inaequalis): A
